The numbers were not newly measured in US20260157999A1, “[…] OF ALKALOID COMPOUNDS AND […] USES THEREOF” (Sensorium Therapeutics, Inc., priority 2021, published 2026), which cites them from elsewhere.

The conditions of this data set: described pharmacokinetics, rapid metabolism and excretion.

In the case of `COc1ccc(C23CCC(=O)CC2N(C)CC3)cc1OC` (stereo not shown) [Mesembrine, 3a-(3,4-dimethoxyphenyl)-octahydro-1-methyl-6H-indol-6-one], the half-life in plasma entry is given as “less than 2 hours”.
